In assay [1] the test system is HAP1 MTAP-deleted cell line. The assay is described as follows: Viability assay, MTAP-deleted cell line. The class given is cell-based. As to conditions: read-out: HAP1 MTAP deleted viability. An excerpt:
Table 1 additionally indicates IC50 values in a viability assay for the MTAP-deleted cell line (column 10), indicating the effect of treatment with compound on cell survival.

In assay [2] the test system is HAP1 MTAP-intact cell line. The assay is described as follows: SDMA in-cell western assay, HAP1 MTAP-intact. As to conditions: HAP1 MTAP-intact, read-out: MTAP HAP1 intact IC50. It is filed as cell-based. Summed up:
(§1)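 Readout: in-cell western detection of SDMA. Cells: HAP1 expressing endogenous MTAP and an MTAP-null HAP1 counterpart. Output: IC50.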

Assay [3] deals with T1, PRMT5 (Homo sapiens, UniProt O14744).
T1 construct: purchased Viva (custom protein)
Nature of the assay: PRMT5 biochemical IC50 assay with SAM as cofactor. As to conditions: PRMT5, SAM as cofactor; read-out: SAM IC50.

In assay [4] the target is T1, PRMT5. Nature of the assay: PRMT5 biochemical IC50 assay with MTA as cofactor. As to conditions: PRMT5, MTA as cofactor; read-out: MTA IC50.
For assay [5], the system named is HAP1 MTAP-deleted cell line. The assay is described as follows: SDMA in-cell western assay, HAP1 MTAP-deleted. The class given is cell-based. As to conditions: for IC50: Homo sapiens, HAP1, SDMA in-cell western, HAP1 MTAP-deleted; for MTAP intact/deleted ratio: SDMA in-cell western. Summed up:
as §1

Assay [6] concerns the target T1, PRMT5. Nature of the assay: PRMT5 biochemical IC50 assay with no cofactor. As to conditions: PRMT5, no cofactor. An excerpt:
Table 1 indicates IC50 values (μM) against PRMT5 for exemplary compounds in the presence of SAM as cofactor, with no cofactor, and with MTA as cofactor, respectively (columns 4-6). […] Ki values can be calculated from the IC50 values as described in the Examples section. As detailed in the Examples section, for the assay performed in the presence of SAM, IC50=Ki×1.5 (Ki=IC50/1.5).

The mark [7] stands for this setting: Homo sapiens, HAP1, viability assay, MTAP-deleted cell line.
Setting [8] is: Homo sapiens, HAP1, SDMA in-cell western.
[9] abbreviates: read-out: HAP1 MTAP deleted IC50.
Where [10] appears, read: IC50 ratio HAP1 MTAP-intact / HAP1 MTAP-deleted.
Where [11] appears, read: Homo sapiens, HAP1, viability IC50, MTAP-deleted cell line.
Where [12] appears, read: read-out: HAP 1 MTAP deleted IC50.
Where [13] appears, read: read-out: No Cofactor/ rel IC50.
Where [14] appears, read: IC50 ratio HAP1 MTAP-intact vs HAP1 MTAP-deleted.
Where [15] appears, read: Homo sapiens, HAP1, viability, HAP1 MTAP-deleted cell line.

Structures are written as SMILES. Where two headings read alike, the source gives them in different places.

T1 sequence (O14744 whole entry): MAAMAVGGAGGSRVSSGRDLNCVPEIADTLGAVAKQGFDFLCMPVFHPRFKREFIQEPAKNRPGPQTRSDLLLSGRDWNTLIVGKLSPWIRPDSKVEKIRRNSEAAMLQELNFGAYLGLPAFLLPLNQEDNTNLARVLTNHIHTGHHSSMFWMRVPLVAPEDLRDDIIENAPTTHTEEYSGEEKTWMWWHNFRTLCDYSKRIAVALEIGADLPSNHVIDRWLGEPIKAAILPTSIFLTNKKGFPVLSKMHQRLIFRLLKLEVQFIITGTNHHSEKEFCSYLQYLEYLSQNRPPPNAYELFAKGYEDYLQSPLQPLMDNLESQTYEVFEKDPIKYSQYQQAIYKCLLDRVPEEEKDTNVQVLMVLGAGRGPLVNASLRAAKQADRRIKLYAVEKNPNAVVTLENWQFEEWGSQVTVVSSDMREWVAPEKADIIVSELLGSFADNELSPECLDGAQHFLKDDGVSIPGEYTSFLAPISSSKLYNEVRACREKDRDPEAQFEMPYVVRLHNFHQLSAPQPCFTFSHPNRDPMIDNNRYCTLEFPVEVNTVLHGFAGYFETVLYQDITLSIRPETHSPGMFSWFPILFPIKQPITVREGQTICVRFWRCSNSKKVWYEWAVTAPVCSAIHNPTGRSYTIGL
T1 sequence (Q9BQA1 whole entry partner): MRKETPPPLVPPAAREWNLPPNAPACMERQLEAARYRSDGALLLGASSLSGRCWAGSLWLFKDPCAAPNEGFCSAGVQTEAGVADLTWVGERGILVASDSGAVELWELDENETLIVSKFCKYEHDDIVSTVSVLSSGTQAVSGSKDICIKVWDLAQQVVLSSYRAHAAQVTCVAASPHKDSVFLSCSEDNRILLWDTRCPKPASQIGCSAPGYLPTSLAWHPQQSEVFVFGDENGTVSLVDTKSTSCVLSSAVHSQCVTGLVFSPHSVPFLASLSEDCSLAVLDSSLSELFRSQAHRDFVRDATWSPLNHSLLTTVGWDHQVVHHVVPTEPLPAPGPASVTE

Turning to `C[C@@H]1CC[C@@H](c2ccc(OC(F)(F)F)cc2)N(C(=O)C(=O)Nc2cncc(C(N)=O)c2)C1` (racemic) [Compound 250, rac-5-{2-[(2R,5S)-5-Methyl-2-[4-(trifluoromethoxy)phenyl]piperidin-1-yl]-2-oxoacetamido}pyridine-3-carboxamide], the IC50 was 1000 to 10000 nM in assay [1] (setting [7]); greater than 1000 nM in assay [2] (setting [8]); 50 to 500 nM at PRMT5 [3]; less than 50 nM on PRMT5 [4]; less than 100 nM in assay [5] (setting [9]); 50 to 500 nM on PRMT5 [6] (read-out: No Cofactor/rel IC50). In assay [5] (setting [10]), the MTAP intact/deleted ratio result was “A (an IC50 ratio greater than or equal to 10 fold)”.
`Cc1cc(NC(=O)C(=O)N2C[C@H](C)CC[C@H]2c2cccc(S(C)(=O)=O)c2)cnc1C` (racemic) [Compound 648, N-(5,6-dimethyl-3-pyridyl)-2-[(2R,5S)-5-methyl-2-(3-methylsulfonylphenyl)-1-piperidyl]-2-oxo-acetamide]: the IC50 in assay [1] (setting [11]) is greater than 10000 nM; in assay [2] (setting [8]), greater than 1000 nM; at PRMT5 [3], 50 to 500 nM; on PRMT5 [4] it was 50 to 500 nM; in assay [5] (setting [12]), greater than 1000 nM; at PRMT5 [6] (read-out: No Cofactor/rel IC50) it was 50 to 500 nM. For the same compound, the MTAP intact/deleted ratio result in assay [5] (setting [10]) is on record as “B (an IC50 ratio greater than or equal to 3 fold but lower than 10 fold)”.
On to `CC(=O)N1CCC(c2cccc(C3CCCCN3C(=O)C(=O)Nc3cnc(N)c(C)c3)c2)CC1` (single isomer, unassigned) [Compound 94], for which the IC50 in assay [1] (viability assay, MTAP-deleted cell line) is 1000 to 10000 nM; in assay [2] (SDMA in-cell western), 100 to 1000 nM; at PRMT5 [3], 50 to 500 nM; on PRMT5 [4], less than 50 nM; in assay [5] (setting [12]) it was less than 100 nM; at PRMT5 [6] (setting [13]), 50 to 500 nM. Further, the “MTAP intact/deleted ratio” value in assay [5] (setting [10]) was “B (an IC50 ratio greater than or equal to 3 fold but lower than 10 fold)”.
On to `C[C@@H]1CC[C@@H](c2ccc3sc(CCN(C)C)nc3c2)N(C(=O)C(=O)Nc2cnc(N)c(C3CC3)c2)C1` (single isomer, unassigned) [Compound 1218], for which the IC50 was less than 1000 nM in assay [1] (setting [7]); less than 100 nM in assay [2] (setting [8]); less than 50 nM at PRMT5 [3]; less than 50 nM at PRMT5 [4]; less than 100 nM in assay [5] (setting [9]); less than 50 nM at PRMT5 [6] (read-out: No Cofactor/rel IC50). The MTAP intact/deleted ratio result in assay [5] (setting [14]) is on record as “A (an IC50 ratio greater than or equal to 10 fold)”.
For the compound `Cc1cc([C@@H]2CC[C@@H](C)CN2C(=O)C(=O)Nc2cncc(C(N)=O)c2)cc(C)c1O` (single isomer, unassigned) [Compound 335], the IC50 was 1000 to 10000 nM in assay [1] (setting [7]); greater than 1000 nM in assay [2] (setting [8]); 50 to 500 nM on PRMT5 [3]; less than 50 nM on PRMT5 [4]; less than 100 nM in assay [5] (setting [9]); 50 to 500 nM on PRMT5 [6] (read-out: No Cofactor/rel IC50). Also, the MTAP intact/deleted ratio entry in assay [5] (setting [10]) is given as “A (an IC50 ratio greater than or equal to 10 fold)”.
Regarding `C[C@H]1CC[C@H]([C@@H]2CCC[C@H](O)C2)N(C(=O)C(=O)Nc2cncc(C(N)=O)c2)C1` (single isomer, unassigned) [Compound 529], the IC50 is greater than 10000 nM in assay [1] (setting [11]); greater than 1000 nM in assay [2] (setting [8]); greater than 500 nM at PRMT5 [3]; greater than 500 nM at PRMT5 [4]; greater than 1000 nM in assay [5] (setting [12]); greater than 500 nM on PRMT5 [6] (read-out: No Cofactor/rel IC50). The MTAP intact/deleted ratio result in assay [5] (setting [10]) was “C (an IC50 ratio of less than 3 fold)”.
For the compound `Cc1cc(NC(=O)C(=O)N2C[C@H](C)CC[C@H]2C2CCCC(C)(C)C2)cnc1N` (mixture of isomers) [Compound 150, N-(6-amino-5-methyl-3-pyridyl)-2-[(2S,5R)-2-(3,3-dimethylcyclohexyl)-5-methyl-1-piperidyl]-2-oxo-acetamide], the IC50 is 1000 to 10000 nM in assay [1] (setting [7]); greater than 1000 nM in assay [2] (setting [8]); 50 to 500 nM at PRMT5 [3]; 50 to 500 nM on PRMT5 [4]; 100 to 1000 nM in assay [5] (setting [12]); 50 to 500 nM on PRMT5 [6] (setting [13]). Further, in assay [5] (setting [10]), the “MTAP intact/deleted ratio” value is on record as “C (an IC50 ratio of less than 3 fold)”.
Take `Cc1cc(NC(=O)C(=O)N2C[C@@H](C)CC[C@@H]2c2ccc3sc(-c4nccn4C)nc3c2)cnc1N` [Compound 1186, N-(6-amino-5-methylpyridin-3-yl)-2-((2R,5S)-5-methyl-2-(2-(1-methyl-1H-imidazol-2-yl)benzo[d]thiazol-5-yl)piperidin-1-yl)-2-oxoacetamide]: the IC50 in assay [1] (setting [7]) was less than 1000 nM; in assay [2] (setting [8]), less than 100 nM; at PRMT5 [3] it was 50 to 500 nM; on PRMT5 [4], less than 50 nM; in assay [5] (setting [9]), less than 100 nM; at PRMT5 [6] (read-out: No Cofactor/rel IC50), less than 50 nM. Besides, the MTAP intact/deleted ratio result in assay [5] (setting [14]) is “A (an IC50 ratio greater than or equal to 10 fold)”.
Regarding `CCc1cc(NC(=O)C(=O)N2C[C@@H](C)CC[C@@H]2c2ccc(OCC3CCN(C)CC3)cc2)cnc1N` [Compound 1206], the IC50 in assay [1] (setting [7]) was less than 1000 nM; in assay [2] (setting [8]), 100 to 1000 nM; at PRMT5 [3], 50 to 500 nM; on PRMT5 [4], less than 50 nM; in assay [5] (setting [9]), less than 100 nM; at PRMT5 [6] (read-out: No Cofactor/rel IC50), less than 50 nM. Moreover, the MTAP intact/deleted ratio result in assay [5] (setting [14]) was “A (an IC50 ratio greater than or equal to 10 fold)”.
With `Cc1cc(NC(=O)C(=O)N2C[C@@H](C)CC[C@@H]2c2ccc3sc(C4CN(C)C4)nc3c2)cnc1C` [Compound 1123, N-(5,6-dimethylpyridin-3-yl)-2-((2R,5S)-5-methyl-2-(2-(1-methylazetidin-3-yl)benzo[d]thiazol-5-yl)piperidin-1-yl)-2-oxoacetamide], the IC50 in assay [1] (setting [7]) is less than 1000 nM; in assay [2] (setting [8]), 100 to 1000 nM; at PRMT5 [3] it was less than 50 nM; at PRMT5 [4] it was less than 50 nM; in assay [5] (setting [9]), less than 100 nM; on PRMT5 [6] (read-out: No Cofactor/rel IC50), less than 50 nM. Besides, the MTAP intact/deleted ratio result in assay [5] (setting [14]) is given as “A (an IC50 ratio greater than or equal to 10 fold)”.
With `Cc1cc(NC(=O)C(=O)N2C[C@@H](C)CC[C@@H]2c2ccc3sc(-c4cccnc4)nc3c2)cnc1N` (single isomer, unassigned) [Compound 1310], the IC50 in assay [1] (setting [15]) was less than 1000 nM; in assay [2] (setting [8]), less than 100 nM; at PRMT5 [3], 50 to 500 nM; on PRMT5 [4], less than 50 nM; in assay [5] (setting [12]), less than 100 nM; on PRMT5 [6] (setting [13]), less than 50 nM. For the same compound, the “MTAP intact/deleted ratio” value in assay [5] (setting [10]) is recorded as “A (an IC50 ratio greater than or equal to 10 fold)”.
`Cc1cc(NC(=O)C(=O)N2CCCC[C@@H]2c2cccc(N(C)C)c2)cnc1N` (single isomer, unassigned) [Compound 390]: the IC50 was greater than 10000 nM in assay [1] (setting [7]); greater than 1000 nM in assay [2] (setting [8]); 50 to 500 nM at PRMT5 [3]; 50 to 500 nM at PRMT5 [4]; greater than 1000 nM in assay [5] (setting [9]); greater than 500 nM on PRMT5 [6] (read-out: No Cofactor/rel IC50). Further, the MTAP intact/deleted ratio result in assay [5] (setting [10]) is “B (an IC50 ratio greater than or equal to 3 fold but lower than 10 fold)”.
For `COc1cc([C@@H]2CC[C@@H](C)CN2C(=O)C(=O)Nc2cncc(C(N)=O)c2)ccc1F` (racemic) [Compound 222, rac-5-{2-[(2R,5S)-2-(4-Fluoro-3-methoxyphenyl)-5-methylpiperidin-1-yl]-2-oxoacetamido}pyridine-3-carboxamide], the IC50 was 1000 to 10000 nM in assay [1] (setting [7]); greater than 1000 nM in assay [2] (setting [8]); 50 to 500 nM at PRMT5 [3]; less than 50 nM at PRMT5 [4]; 100 to 1000 nM in assay [5] (setting [9]); 50 to 500 nM at PRMT5 [6] (read-out: No Cofactor/rel IC50). For the same compound, the MTAP intact/deleted ratio result in assay [5] (setting [10]) is on record as “A (an IC50 ratio greater than or equal to 10 fold)”.
As for `CCc1cc(NC(=O)C(=O)N2C[C@@H](C)CC[C@@H]2c2ccc(N3CCN(C)C[C@H]3C)nc2)cnc1N` [Compound 1294, N-(6-amino-5-ethyl-3-pyridyl)-2-[(2R,5S)-2-[6-[(2R)-2,4-dimethylpiperazin-1-yl]-3-pyridyl]-5-methyl-1-piperidyl]-2-oxo-acetamide], the IC50 in assay [1] (setting [15]) is less than 1000 nM; in assay [2] (setting [8]), 100 to 1000 nM; on PRMT5 [3], 50 to 500 nM; at PRMT5 [4] it was less than 50 nM; in assay [5] (setting [12]), less than 100 nM; at PRMT5 [6] (setting [13]), less than 50 nM. For the same compound, in assay [5] (setting [10]), the “MTAP intact/deleted ratio” value is “A (an IC50 ratio greater than or equal to 10 fold)”.
Turning to `C[C@@H]1CC[C@@H](c2ccccn2)N(C(=O)C(=O)Nc2cncc(C(N)=O)c2)C1` (single isomer, unassigned) [Compound 578], the IC50 in assay [1] (setting [11]) was greater than 10000 nM; in assay [2] (setting [8]), greater than 1000 nM; at PRMT5 [3], greater than 500 nM; on PRMT5 [4], greater than 500 nM; in assay [5] (setting [12]), greater than 1000 nM; on PRMT5 [6] (read-out: No Cofactor/rel IC50) it was greater than 500 nM. Further, the MTAP intact/deleted ratio result in assay [5] (setting [10]) is reported as “C (an IC50 ratio of less than 3 fold)”.
